We go through one compound from US9212196B2, “Hypophosphorous acid derivatives having antihyperalgic activity and biological applications thereof” (UNIVERSITE PARIS DESCARTES, priority 2011, dated 2015).

Usually EC50 stands for the concentration that produces a half-maximal response.

Entries after “also recorded” stand apart in the source; their conditions may differ.

For test [1], the target named is mGlu6 (Homo sapiens (Human), UniProt O15303). Description: Agonist activity on mGlu6 in transfected HEK293 cells, intracellular calcium release (Fluo4-AM). The class given is cell-based. Particulars: transfected cells, calcium release; read-out: mGlu6 EC50 μM (n). The source says: The EC50's are compared to those of L-AP4 (L-2-amino-4-phosphonobutyric acid) used as a reference.
Metabotropic glutamate receptors were transiently transfected in HEK293 cells by electroporation as described elsewhere (Brabet I. et al., 1998) and plated in 96-well microplates. The high affinity glutamate transporter EAAC1 was co-transfected with the receptor in order to avoid any influence of glutamate released by the cells in the assay medium. In the experiments carried out by the inventors, Group-III mGluRs were co-transfected with a chimeric G-protein which couples the activation of the receptor to the phospholipase-C (PLC) pathway. Thus receptor activation induces production of inositol phosphate (IP) which in turn induces intracellular Ca^2+ release. Receptor activity was then determined by measurement of the IP production or Ca release as already described (Goudet C. et al., PNAS 2004). For intracellular calcium measurements, cells expressing mGluRs were loaded with Ca2+-sensitive fluorescent dye Fluo-4 AM (Invitrogen, Cergy-Pontoise, France) dissolved in Hanks' balanced salt solution (HBSS, Invitrogen, Cergy-Pontoise, France) containing 2.5 mM Probenicid (Sigma-Aldrich Chemie, Saint-Quentin Fallavier, France) for 1 h at 37° C., then washed and incubated with HBSS containing probenecid. A drug plate was prepared with the various concentrations of agonist to be tested and drug solution was added in each well after 20 s of recording. Fluorescence signals (excitation 485 nm, emission 525 nm) were measured by using the fluorescence microplate reader Flexstation III (Molecular Devices, Saint-Grégoire, France) at sampling intervals of 1.5 s for 60 s. All points are realized in triplicate.
The dose-response curves were fitted using the GraphPad Prism program and the following equation: y=[(ymax−ymin)/(1+(x/EC50)n)]+ymin where EC50 is the concentration of the compound necessary to obtain the half maximal effect and n is the Hill coefficient.
(Calcium assays in cells follow changes in intracellular calcium, usually with a dye or a luminescent sensor.)

For test [2], the system named is CCI neuropathic pain model. Description: Paw pressure test in CCI neuropathic pain model in rats. The class given is in vivo, rat. The method, then:
After the induction period of the neuropathy or inflammation, various amounts of derivative 2 dissolved in serum have been injected in rats, (from 0.5 to 15 μg/rat, i.t. from 1 to 30 mg/kg, i.p.) on time-course of vocalization threshold to paw pressure. The results obtained on healthy animals are given on FIG. 1. They are expressed by the time course curves of means+/-SEM of vocalization threshold in grams (n=6-8 rats per group) (A) or by the area under the curve (B). Morphine (10 μg/rat, i.t.) is used as a positive control. […] FIG. 4 illustrates the effect of intrathecal administration of derivative 2 on the vocalization threshold to paw pressure in the CCI neuropathic pain model (effect of derivative 2 (1, 5, 10 μg/rat, i.t.) on time-course of vocalization threshold to paw pressure). Gabapentin (100 mg/kg, p.o.) is used as a positive control. […] The effect of intrathecal administration of derivative 2 (10 μg/rat, i.t.) on the vocalization threshold to paw pressure in the CCI neuropathic pain model after mGluR4 or mismatch ODN treatment is illustrated by FIG. 4. […] The animals were submitted to the paw pressure test previously described by Randall and Selitto (1957). Nociceptive thresholds, expressed in grams (g), were measured with a Ugo Basile analgesimeter (Apelex, tip diameter of the probe: 1 mm, weight: 30 g) by applying an increasing pressure to the right hind paw of rats until a squeak (vocalization threshold) was obtained (cut-off was 750 g except carrageenan treated animals for which the cut-off was 500 g). The treatments were done after the measurement of two consecutive stable vocalization threshold values and their effects were assessed 15, 30, 45, 60, 90, and 120 min after. Unilateral peripheral mononeuropathy was induced according to the method described by Bennett and Xie (1988). Briefly, after determining vocalization thresholds, rats were anesthetized with sodium pentobarbital (50 mg/kg i.p.) and four chromic gut (5-0) ligatures were tied loosely (with about 1-mm spacing) around the right common sciatic nerve. The nerve was constricted to a barely discernible degree, so that circulation through the epineurial vasculature was not interrupted. Only animals presenting a decrease ≧15% of the presurgery value of vocalization threshold were selected, i.e., 90% of ligated animals (presurgery value: 379±7 g, pre-drug value: 188±7 g). Intrathecal injections were performed, under isoflurane anesthesia (4% induction, 2% maintenance), as previously described (Mestre et al., 1994). Briefly, the anesthetized rat was held in one hand by the pelvic girdle and a 25-gauge X1-inch needle connected to a 25 μL Hamilton syringe was inserted into the subarachnoidal space between lumbar vertebrae L5 and L6, until a tail flick was elicited. The syringe was held in position for few seconds after the injection of a volume of 10 μL/rat. AS ODN was designed based on rat mGluR4 sequence in regions lacking known splice variants. […]. One ODN with scramble arrangement in the base composition compared to the 18-mer specific as was used as control for sequence-independent effects of ODN treatments. […] Pain scores were determined using standard methods in strict conformity with ethical standards (Zimmermann M., 1983) before ODN treatments and then on day 4 in the afternoon. […]

Test [3] has as its system model of inflammation induced by carrageenan in C57BL6 mice. Description: Von Frey test in carrageenan inflammation model in mice. In kind it is in vivo, mouse. The method, then: FIG. 2 illustrates the effect of intrathecal administration of derivative 2 on the vocalization threshold to paw pressure in the carrageenan inflammatory pain model (effect of derivative 2 (0.5, 1, 5, 10 μg/rat, i.t.) on time-course of vocalization threshold to paw pressure). Morphine (10 μg/rat, i.t.) is used as a positive control.
Adult male Sprague-Dawley rats weighting 175-200 g were purchased from Charles River. C57/BL6 mice were from Elevage Janvier, and homozygous mGlu4 (−/−) and wild-type (+/+) littermates were generated from crosses between heterozygous animals. Animals were housed under controlled environmental conditions (22° C.; 55% humidity) and kept under a 12/12 h light/dark cycle, with food and water ad libitum for a week prior to start the experiments in order to acclimatize. Animal care and experiments were carried out in accordance with the Committee for Research and Ethical Issues of the IASP (Zimmermann M., 1983; Goudet C., 2008).
Mechanical allodynia and hyperalgesia were assessed using the von Frey hair filaments of 3 different bending forces (0.07 g, 0.6 g, 1.4 g). For each filament, 5 stimuli were applied with an interval of 3-5 s.

Chain of mGlu6 (O15303 25-877): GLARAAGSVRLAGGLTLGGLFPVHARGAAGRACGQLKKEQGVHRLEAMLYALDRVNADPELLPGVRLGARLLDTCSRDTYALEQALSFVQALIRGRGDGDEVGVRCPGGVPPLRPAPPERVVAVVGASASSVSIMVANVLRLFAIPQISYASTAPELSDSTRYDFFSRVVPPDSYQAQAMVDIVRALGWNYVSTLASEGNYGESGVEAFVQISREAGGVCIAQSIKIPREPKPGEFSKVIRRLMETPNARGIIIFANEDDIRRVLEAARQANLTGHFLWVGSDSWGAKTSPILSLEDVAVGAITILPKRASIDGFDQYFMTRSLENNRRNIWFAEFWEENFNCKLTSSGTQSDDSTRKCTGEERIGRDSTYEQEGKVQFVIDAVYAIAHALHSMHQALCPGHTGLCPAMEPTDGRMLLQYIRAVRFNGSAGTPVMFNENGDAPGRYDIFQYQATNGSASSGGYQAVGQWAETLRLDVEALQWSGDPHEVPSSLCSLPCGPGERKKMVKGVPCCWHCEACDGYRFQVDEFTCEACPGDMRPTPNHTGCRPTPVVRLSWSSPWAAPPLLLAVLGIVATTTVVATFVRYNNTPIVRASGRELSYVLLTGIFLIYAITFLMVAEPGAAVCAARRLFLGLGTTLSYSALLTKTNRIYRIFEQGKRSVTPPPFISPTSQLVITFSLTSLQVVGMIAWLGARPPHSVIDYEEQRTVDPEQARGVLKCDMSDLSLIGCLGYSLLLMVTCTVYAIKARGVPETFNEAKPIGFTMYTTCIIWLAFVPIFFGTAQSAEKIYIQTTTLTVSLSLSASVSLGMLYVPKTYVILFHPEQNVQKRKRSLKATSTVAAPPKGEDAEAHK

On to `N[C@@H](CCP(=O)(O)C(O)c1ccc(OCC(=O)O)cc1)C(=O)O` (stereo partly drawn) [Derivative 2, [((3S)-3-Amino-3-carboxy)propyl][(4-(carboxymethoxy)phenyl)hydroxymethyl]phosphinic Acid], for which, in test [1], the EC50 is 4.2 ± 0.6 µM. Also, in test [2] (CCI neuropathic pain, rats, 1-10 μg/rat i.t.), the “antihyperalgesic effect on vocalization threshold to paw pressure” value is reported as “abolishes the excess of mechanical pain”. Besides, the “antihyperalgesic effect after antisense oligonucleotides against mGlu4” value in test [2] (CCI neuropathic rats, 10 μg/rat i.t., versus saline or mismatch ODN) is reported as “significantly reduced”. Further, the “mechanical antihyperalgesia after knockdown of spinal mGlu4 expression by antisense oligonucleotides” value in test [2] (FIG. 7 legend, model not named) was “reduces mechanical antihyperalgesia”. For the same compound, the “antihyperalgesic effect compared to gabapentine” value in test [2] (neuropathy model, gabapentine 100 mg/kg per os as control) is “significantly higher than the one of gabapentine”. Further, the “antihyperalgesic effect in mice lacking mGluR4 receptor versus wild-type littermates” value in test [3] (10 μg/mice i.t.) was “significantly decreased in mice lacking mGluR4 receptor; also recorded: profoundly impaired”. For the same compound, the “mechanical hypersensitivity measured using Von Frey filaments” value in test [3] (C57BL6 mice, i.t.) is “dose-dependently reduced the mechanical hypersensitivity”.
